The source of these data is ChEMBL document CHEMBL4033739, “Design and synthesis of novel δ opioid receptor agonists with an azatricyclodecane skeleton for improving blood-brain barrier penetration” (Bioorg Med Chem Lett, 2017).

For data set [1], the target named is T1, Mu-type opioid receptor (Homo sapiens, UniProt P35372). Briefly: Displacement of [3H]DAMGO from human recombinant MOR expressed in CHO cell membranes.
The species named for data set [2] is Homo sapiens. Briefly: Selectivity index, ratio of Ki for human recombinant MOR expressed in CHO cell membranes to Ki for human recombinant DOR expressed in CHO cell membranes. The class given is cell-based.
For data set [3], the target named is T1, Mu-type opioid receptor. Briefly: Agonist activity at human recombinant MOR expressed in CHO cells assessed as cAMP accumulation. The class given is functional, cell-based. On the technique in general: Changes in cAMP serve as a functional read-out for many G protein-coupled receptors.
The target of data set [4] is T2, Delta-type opioid receptor (Homo sapiens, UniProt P41143). Briefly: Displacement of [3H]DPDPE from human recombinant DOR expressed in CHO cell membranes. On the technique in general: Displacement assays read how much labelled ligand stays bound in the presence of the test substance.
The target of data set [5] is T3, Kappa-type opioid receptor (Homo sapiens, UniProt P41145). Nature of the data set: Displacement of [3H]U-69,593 from human recombinant KOR expressed in CHO cell membranes.
The species named for data set [6] is Homo sapiens. Briefly: Selectivity index, ratio of Ki for human recombinant KOR expressed in CHO cell membranes to Ki for human recombinant DOR expressed in CHO cell membranes. It counts as cell-based.
Data set [7] addresses T3, Kappa-type opioid receptor. Nature of the data set: Agonist activity at human recombinant KOR expressed in CHO cells assessed as cAMP accumulation. The class given is functional, cell-based.
The target in data set [8] is T2, Delta-type opioid receptor. Briefly: Agonist activity at human recombinant DOR expressed in CHO cells assessed as cAMP accumulation. It counts as functional, cell-based.
Data set [9] addresses T2, Delta-type opioid receptor. Briefly: Agonist activity at human recombinant DOR expressed in CHO cells assessed as cAMP accumulation relative to SNC80. It counts as functional, cell-based.
Data set [10] has as its target T3, Kappa-type opioid receptor. Nature of the data set: Agonist activity at human recombinant KOR expressed in CHO cells assessed as cAMP accumulation relative to U-69,593. It counts as functional, cell-based.
Data set [11] concerns the target T1, Mu-type opioid receptor. Briefly: Agonist activity at human recombinant MOR expressed in CHO cells assessed as cAMP accumulation relative to DAMGO. The class given is functional, cell-based.
Data set [12] concerns the target T1, Mu-type opioid receptor. Nature of the data set: Agonist activity at human recombinant MOR expressed in CHO cells assessed as cAMP accumulation at 10 uM relative to DAMGO. The class given is functional, cell-based.
A further data set deals with Mus musculus. Nature of the data set: Antinociceptive activity in sc dosed ICR mouse assessed as reduction in acetic acid-induced writhing response administered 20 mins before acetic acid injection and measured for 20 mins post acetic acid injection. The class given is functional.
For data set [13], the target named is T3, Kappa-type opioid receptor. Briefly: Agonist activity at human recombinant KOR expressed in CHO cells assessed as cAMP accumulation at 10 uM relative to U-69,593. The class given is functional, cell-based.
Data set [14] is described as follows: Apparent permeability at 10 uM incubated for 60 mins by RBT-24 kit. It counts as physicochemical. The settings on record: rat, not told.

T2 sequence (P41143 whole entry): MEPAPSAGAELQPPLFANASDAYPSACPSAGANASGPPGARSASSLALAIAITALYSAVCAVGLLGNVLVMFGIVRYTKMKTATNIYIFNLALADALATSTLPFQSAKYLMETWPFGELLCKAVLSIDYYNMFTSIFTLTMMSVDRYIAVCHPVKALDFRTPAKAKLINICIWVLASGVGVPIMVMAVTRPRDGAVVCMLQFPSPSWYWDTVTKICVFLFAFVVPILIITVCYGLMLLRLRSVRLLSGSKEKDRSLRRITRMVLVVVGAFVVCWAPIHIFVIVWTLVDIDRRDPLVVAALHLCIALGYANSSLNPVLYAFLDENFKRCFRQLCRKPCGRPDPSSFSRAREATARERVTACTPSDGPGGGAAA
T3 sequence (P41145 whole entry): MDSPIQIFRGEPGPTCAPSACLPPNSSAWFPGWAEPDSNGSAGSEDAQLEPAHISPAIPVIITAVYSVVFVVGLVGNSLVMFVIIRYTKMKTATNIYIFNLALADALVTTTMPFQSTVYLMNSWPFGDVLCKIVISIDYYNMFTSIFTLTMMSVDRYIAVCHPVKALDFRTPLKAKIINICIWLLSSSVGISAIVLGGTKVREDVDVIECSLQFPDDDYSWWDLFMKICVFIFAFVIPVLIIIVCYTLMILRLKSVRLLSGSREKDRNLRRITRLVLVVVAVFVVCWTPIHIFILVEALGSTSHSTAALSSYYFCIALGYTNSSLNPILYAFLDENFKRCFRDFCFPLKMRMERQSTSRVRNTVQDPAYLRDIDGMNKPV
T1 sequence (P35372 whole entry): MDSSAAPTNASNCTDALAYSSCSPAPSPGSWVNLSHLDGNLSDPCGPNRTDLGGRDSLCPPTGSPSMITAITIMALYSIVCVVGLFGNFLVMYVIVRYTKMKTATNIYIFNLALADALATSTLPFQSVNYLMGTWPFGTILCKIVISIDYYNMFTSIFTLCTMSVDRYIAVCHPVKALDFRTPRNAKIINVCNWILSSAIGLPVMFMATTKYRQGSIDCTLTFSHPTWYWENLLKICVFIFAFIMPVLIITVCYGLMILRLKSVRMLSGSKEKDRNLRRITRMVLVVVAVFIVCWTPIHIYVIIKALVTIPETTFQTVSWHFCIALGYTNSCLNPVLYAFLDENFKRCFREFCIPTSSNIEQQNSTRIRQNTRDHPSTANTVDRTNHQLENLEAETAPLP

Turning to `Oc1ccc2c(c1)C13CCN(CC4CC4)C(C2)C12CCC1C3[C@@H](CN1CC1CCCCC1)C2` (stereo partly drawn), the Ki amounted to 2500 pM at Mu-type opioid receptor [1], 1460 pM in data set [4] and 781 pM in data set [5]. Besides, the figures for the Ratio Ki in the data set filed under Homo sapiens [2] and in the data set listed under Homo sapiens [6] were 1.7 and 0.5, respectively. Further, the EC50 on Mu-type opioid receptor [3] was 21000 pM; in [7], 5700 pM; in [8] it was 1700 pM. In addition, the Emax in [9] was 82%; in data set [10] it was 45%; on Mu-type opioid receptor [11] it was 17%.
`Oc1ccc2c(c1)C13CCN(CC4CC4)C(C2)C12CCC1C3[C@@H](CN1Cc1ccccc1)C2` (stereo partly drawn): the inhibition constant (Ki) came to 3440 pM at Mu-type opioid receptor [1], 585 pM in data set [4] and 4260 pM in [5]. Further, the Ratio Ki in the data set listed under Homo sapiens [2] turned out to be 5.9; in the data set filed under Homo sapiens [6], 7.3. The Emax on Mu-type opioid receptor [12] stood at 18%; in data set [9], 90%; in [10], 36%. Further, the EC50 in [7] was determined as 4500 pM; in [8], 420 pM.
Turning to `O=C(c1ccccc1)N1C[C@H]2CC34CCC1C2C31CCN(CC2CC2)C4Cc2ccc(O)cc21` (stereo partly drawn), the Ki at Mu-type opioid receptor [1] was found to be 578 pM; in data set [4], 211 pM; in data set [5], 362 pM. Also, the Ratio Ki in the data set filed under Homo sapiens [2] is 2.7; in the data set filed under Homo sapiens [6], 1.7. For the same molecule, the median effective dose (ED50) in the data set on Mus musculus stood at 1.15 mg/kg. Moreover, the results for the maximum response (Emax) (in data set [13]; on Mu-type opioid receptor [12]; in [9]) were 5.5%, 4.7% and 93%, respectively. Moreover, the Papp at 1 h, 10 µM in [14] turned out to be 18.5 ×10⁻⁶ cm/s. In data set [8], the EC50 is 310 pM.
Regarding `O=C(Nc1ccccc1)N1C[C@H]2CC34CCC1C2C31CCN(CC2CC2)C4Cc2ccc(O)cc21` (stereo partly drawn), the Ki on Mu-type opioid receptor [1] stood at 545 pM; in data set [4] it was 265 pM; in [5], 336 pM. The results for the Ratio Ki in the data set filed under Homo sapiens [2] and in the data set listed under Homo sapiens [6] were 2.1 and 1.3, respectively. In addition, the maximal effect (Emax) is 6.2% on Mu-type opioid receptor [12], 42% in data set [9] and 44% in data set [10]. For the same molecule, the 50% effective concentration (EC50) came to 300 pM in [7] and 1500 pM in data set [8].
As to `Oc1ccc2c(c1)C13CCN(CC4CC4)C(C2)C12CCC1C3[C@@H](CN1c1cnccn1)C2` (stereo partly drawn), the Ki is 813 pM at Mu-type opioid receptor [1], 356 pM in data set [4] and 479 pM in data set [5]. Moreover, the Ratio Ki is 2.3 in the data set listed under Homo sapiens [2] and 1.3 in the data set filed under Homo sapiens [6]. Also, the values for the maximum response (Emax) (on Mu-type opioid receptor [12]; in data set [9]; in data set [10]) were 5.7%, 71% and 24%, respectively. Also, the results for the concentration giving a half-maximal response (EC50) in [7] and in data set [8] were 200 pM and 430 pM, respectively.
On to `O=C(Oc1ccccc1)N1C[C@H]2CC34CCC1C2C31CCN(CC2CC2)C4Cc2ccc(O)cc21` (stereo partly drawn), for which the inhibition constant (Ki) amounted to 826 pM at Mu-type opioid receptor [1], 833 pM in data set [4] and 522 pM in [5]. The Ratio Ki was 1 in the data set filed under Homo sapiens [2] and 0.6 in the data set listed under Homo sapiens [6]. The maximal effect (Emax) on Mu-type opioid receptor [12] came to 5.6%; in [9], 92%; in [10] it was 27%. For the same molecule, the results for the half-maximal effective concentration (EC50) in data set [7] and in [8] were 2500 pM and 1300 pM, respectively.
As to `Oc1ccc2c(c1)C13CCN(CC4CC4)C(C2)C12CCC1C3[C@@H](CN1c1ccccc1)C2` (stereo partly drawn), the Ki on Mu-type opioid receptor [1] is 953 pM; in data set [4] it was 1260 pM; in [5] it was 2430 pM. The Ratio Ki turned out to be 0.8 in the data set listed under Homo sapiens [2] and 1.9 in the data set listed under Homo sapiens [6]. Besides, the concentration for a half-maximal effect (EC50) on Mu-type opioid receptor [3] was determined as 10000 pM; in data set [7] it was 8100 pM; in data set [8] it was 4700 pM. In addition, the results for the Emax (in data set [9]; in data set [10]; on Mu-type opioid receptor [11]) were 82%, 54% and 50%, respectively.
On to `O=C(c1ccccn1)N1C[C@H]2CC34CCC1C2C31CCN(CC2CC2)C4Cc2ccc(O)cc21` (stereo partly drawn), for which the inhibitory constant (Ki) worked out at 726 pM at Mu-type opioid receptor [1], 458 pM in [4] and 564 pM in [5]. Also, the Ratio Ki was 1.6 in the data set filed under Homo sapiens [2] and 1.2 in the data set listed under Homo sapiens [6]. Further, the Emax in data set [13] stood at 18%; at Mu-type opioid receptor [12], 6.5%; in [9] it was 85%. In addition, the EC50 in data set [8] worked out at 350 pM.
Consider `O=C(c1ccoc1)N1C[C@H]2CC34CCC1C2C31CCN(CC2CC2)C4Cc2ccc(O)cc21` (stereo partly drawn), for which the inhibition constant Ki stood at 455 pM on Mu-type opioid receptor [1], 313 pM in [4] and 221 pM in data set [5]. Further, the Ratio Ki in the data set listed under Homo sapiens [2] was 1.5; in the data set listed under Homo sapiens [6] it was 0.7. The half-maximal effective concentration (EC50) was determined as 155000 pM at Mu-type opioid receptor [3], 1400 pM in [7] and 230 pM in [8]. Moreover, the maximal response (Emax) in data set [9] turned out to be 93%; in data set [10] it was 33%; at Mu-type opioid receptor [11] it was 50%.

What is called Ki is a measure of affinity in units of concentration, obtained from inhibition or displacement. As a reminder, the EC50 is the concentration that produces a half-maximal response. The Emax is the greatest response seen or fitted, relative to the assay's reference. One may read the ED50 as the midpoint of the dose-response relation. By Papp is commonly meant the rate of passage across a membrane or cell layer, normalised by area and donor concentration.
